Counter-ions that a name gives are not always drawn.
target: human recombinant p56^lck (Homo sapiens, UniProt P06239); assay: Inhibition of T-cell tyrosine kinase p56^lck (incorporation of 33P from [γ-^33 P] ATP into peptide substrate); format: biochemical; conditions: 10 μM ATP, 20 μM peptide substrate, 30° C., 60 minutes, pH 7.5
From the text: As mentioned earlier, the compounds of formula I, the pharmaceutically acceptable salts of basic compounds of formula I with acids, and the pharmaceutically acceptable salts of acidic compounds of formula I with bases, are all inhibitors of the T-cell tyrosine kinase p56^lck which will down-regulate T-cell activation leading to immunosuppression and decrease inflammation. Therefore, the compounds of the invention are anti-inflammatory agents which can be used in combating the inflammatory condition which occurs in various diseases, as well as immunosuppressives which can be used, for example, for preventing graft rejection in transplantation therapy.
Reaction mixtures (25 μl) containing human recombinant p56^lck, 10 mM MnCl2, 10-μM ATP, 0.2 mM sodium vanadate, 20 μM peptide substrate (AlaGluGluGluIleTyr-GlyGlu-PheGluAlaLysLysLysLys, [γ-^33 P] ATP (1000-2000 cpm/pmol) in 25 mM HEPES buffer (pH 7.5) and 0.1% Triton X-100 are incubated at 30° C. for 60 minutes and the reaction is then stopped by the addition of 10 μl of 2% orthophosphoric acid. Radiolabelled peptide is separated from unreacted [γ-^33 P] ATP by filtration through Millipore Multiscreen phosphocellulose cation exchange paper filters. Bound peptide is washed with 0.5% orthophosphoric acid and incorporated radioactivity is determined by scintillation spectrometry.
The degree of enzyme blockade at each concentration of test compound is calculated from the following equation: [formula]
The IC50 value is that concentration of test compound which reduces by 50% the protein kinase-induced incorporation of the radiolabel under the test conditions described earlier.

Chain of human recombinant p56^lck (P06239 whole entry): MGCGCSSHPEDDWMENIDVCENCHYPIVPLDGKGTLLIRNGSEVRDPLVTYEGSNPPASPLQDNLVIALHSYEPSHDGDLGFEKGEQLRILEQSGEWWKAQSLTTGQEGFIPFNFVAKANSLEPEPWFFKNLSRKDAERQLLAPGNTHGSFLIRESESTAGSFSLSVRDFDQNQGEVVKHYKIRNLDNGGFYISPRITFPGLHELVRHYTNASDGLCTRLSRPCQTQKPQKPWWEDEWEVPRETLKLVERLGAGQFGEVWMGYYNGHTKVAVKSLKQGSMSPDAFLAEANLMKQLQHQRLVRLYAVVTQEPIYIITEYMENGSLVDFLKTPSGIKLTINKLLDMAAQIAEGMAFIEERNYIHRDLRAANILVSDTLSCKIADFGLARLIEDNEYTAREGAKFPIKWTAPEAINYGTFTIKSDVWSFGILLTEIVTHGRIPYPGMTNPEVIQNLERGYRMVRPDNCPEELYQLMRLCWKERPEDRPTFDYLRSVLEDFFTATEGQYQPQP

Structure (SMILES) | IC50 [nM]
CCN(CC)CCOc1ccc(Nc2ncc3c(n2)N(C)C(=O)N(c2c(Cl)cccc2Cl)C3)cc1 [Example 1, 3-(2,6-dichlorophenyl)-7-[4-[2-(diethylamino)ethoxy]anilino]-3,4-dihydro-1-methylpyrimido[4,5-d]pyrimidin-2(1H)-one] | 10
CCN(CC)CCOc1ccc(Nc2ncc3c(n2)N(c2ccccc2)C(=O)N(c2c(Cl)cccc2Cl)C3)cc1 [Example 7, 3-(2,6-dichlorophenyl)-7-[4-[2-(diethylamino)ethoxy]anilino]-3,4-dihydro-1-phenylpyrimido[4,5-d]pyrimidin-2(1H)-one] | 0.6
CCN(CC)CCOc1ccc(Nc2ncc3c(n2)N(Cc2cccnc2)C(=O)N(c2c(Cl)cccc2Cl)C3)cc1 [Example 10, 3-(2,6-dichlorophenyl)-7-[4-[2-(diethylamino)ethoxy]anilino]-3,4-dihydro-1-[(3-pyridyl)-methyl]pyrimido[4,5-d]pyrimidin-2(1H)-one trifluoroacetate] | 19
O=C1N(c2c(Cl)cccc2Cl)Cc2cnc(Nc3ccncc3)nc2N1c1ccccc1 [Example 22, 3-(2,6-dichlorophenyl)-3,4-dihydro-1-phenyl-7-[(4-pyridyl)amino]pyrimido[4,5-d]pyrimidin-2(1H)-one] | 265
NCCc1cccc(N2C(=O)N(c3c(Cl)cccc3Cl)Cc3cnc(Nc4ccccc4)nc32)c1 [Example 38, 1-[3-(2-aminoethyl)phenyl]-7-anilino-3-(2,6-dichlorophenyl)-3,4-dihydropyrimido[4,5-d]pyrimidin-2(1H)-one] | 0.03
NCCc1cccc(N2C(=O)N(c3ccccc3Br)Cc3cnc(Nc4ccccc4)nc32)c1 [Example 50, 1-[3-(2-aminoethyl)phenyl]-7-anilino-3-(2-bromophenyl)-3,4-dihydropyrimido[4,5-d]pyrimidin-2(1H)-one] | 6
O=C1N(c2ccccc2Br)Cc2cnc(Nc3ccccc3)nc2N1c1ccc(CO)cc1 [Example 63, 7-anilino-3-(2-bromophenyl)-3,4-dihydro-1-[4-(hydroxymethyl)phenyl]pyrimido[4,5-d]pyrimidin-2(1H)-one] | 17
CCN(CC)CCOc1ccc(Nc2ncc3c(n2)N(c2cccc(CCN(C)C)c2)C(=O)N(c2ccc(Cl)cc2Cl)C3)cc1 [Example 82, 3-(2,4-dichlorophenyl)-7-[4-[2-(diethylamino)ethoxy]anilino]-3,4-dihydro-1-[3-(2-(dimethylamino)ethyl)phenyl]pyrimido[4,5-d]pyrimidin-2(1H)-one] | 0.4
CCC(CC)(CN)c1cccc(N2C(=O)N(c3c(Cl)cccc3Cl)Cc3cnc(Nc4ccccc4)nc32)c1 [Example 85, 1-[3-(1-aminomethyl-1-ethyl-propyl)-phenyl]-3-(2,6-dichloro-phenyl)-7-phenylamino-3,4-dihydro-pyrimido[4,5-d]pyrimidin-2(1H)-one trifluoroacetate] | 7
